Measurements as given in ChEMBL document CHEMBL3351940, “Antioxidant effects of the highly-substituted carbazole alkaloids and their related carbazoles” (Bioorg Med Chem Lett, 2014).

Experiments:
[1] = Antioxidant activity assessed as DPPH radical scavenging capacity after 30 mins by UV spectrophotometry; format: physicochemical
[2] = Antioxidant activity assessed as ABTS+ radical scavenging capacity after 16 hrs by UV spectrophotometry; format: physicochemical
[3] = Antioxidant activity assessed as reduction of Cu2+ to Cu+ after 3 mins by PAO-SO method; format: physicochemical; details: 0.05 h
[4] = Cytotoxicity against human HCT116 cells assessed as reduction cell viability at 100 uM after 48 hrs by MTT assay; format: cell-based; details: hct-116, 48 h

CCCCCCCc1c(C)c(O)cc2c1[nH]c1ccccc12
IC50 [1]: 12 µM | IC50 [2]: 159 µM | Activity [3]: 2803 µmol/L | Activity [4]: Non-toxic

C/C(=C\c1c(C)c(O)cc2c1[nH]c1c(O)ccc(CO)c12)CCC(C)C
IC50 [1]: 9.9 µM | IC50 [2]: 112 µM | Activity [3]: 3567 µmol/L | Activity [4]: Non-toxic

C/C(=C\c1c(C)c(O)cc2c1[nH]c1c(O)ccc(C=O)c12)CCC(C)C
IC50 [1]: 7.1 µM | IC50 [2]: 52.6 µM | Activity [3]: 4584 µmol/L | Activity [4]: Non-toxic

CC[C@H](C)CC/C(C)=C/c1c(C)c(O)cc2c1[nH]c1c(O)ccc(CO)c12
IC50 [1]: 9.8 µM | IC50 [2]: 116 µM | Activity [3]: 3413 µmol/L | Activity [4]: Non-toxic

CC[C@H](C)CC/C(C)=C/c1c(C)c(O)cc2c1[nH]c1c(O)ccc(C=O)c12
IC50 [1]: 7.6 µM | IC50 [2]: 57.1 µM | Activity [3]: 4580 µmol/L | Activity [4]: Non-toxic

CC(C)=CCc1ccc2[nH]c3c(c2c1)C(=O)C(=O)C(C)=C3CC(C)O (centres undefined)
IC50 [1]: > 50 µM | IC50 [2]: > 500 µM | Activity [3]: 1182 µmol/L | Activity [4]: Toxic

Cc1c(O)cc2c([nH]c3ccccc32)c1CC(C)O (centres undefined)
IC50 [1]: 12 µM | IC50 [2]: 161 µM | Activity [3]: 2881 µmol/L | Activity [4]: Non-toxic

CC(C)=CCc1ccc2[nH]c3c(CC(C)O)c(C)c(O)cc3c2c1 (centres undefined)
IC50 [1]: 12 µM | IC50 [2]: 175 µM | Activity [3]: 2411 µmol/L | Activity [4]: Toxic

Cc1c(C)c2c(c(C)c1O)CC[C@@](C)(CCC[C@H](C)CCC[C@H](C)CCCC(C)C)O2 [ALPHA-TOCOPHEROL]
IC50 [1]: 15.4 µM | IC50 [2]: 211 µM | Activity [3]: Active | Activity [4]: Non-toxic

CC1=NN(c2ccccc2)C(=O)C1 [EDARAVONE]
IC50 [1]: 19.7 µM | IC50 [2]: 214 µM | Activity [3]: 3096 µmol/L | Activity [4]: Non-toxic

CCCOC(=O)c1cc(O)c(O)c(O)c1 [PROPYL GALLATE]
IC50 [1]: 6.1 µM | IC50 [2]: 188 µM | Activity [3]: 3096 µmol/L | Activity [4]: Non-toxic
